Data: ChEMBL document CHEMBL1151562, “Stereoselective synthesis of novel analogues of 2-deoxy- and 2,3-dideoxynucleosides with potential antiviral activity” (Bioorg Med Chem Lett, 1994)
Active and inactive are the calls of the source.

Key:
Assay type in all cases: functional, cell-based
[1] = system: Daudi; assay: Tested for antiproliferative activity against human tumor DAUDI EBV-immortalized B-lymphoid cells up to 72 hrs at concentration of 10 ug/ml; Inactive
[2] = system: Daudi; assay: Tested for antiproliferative activity against human tumor DAUDI EBV-immortalized B-lymphoid cells up to 72 hrs at concentration of 2.5 ug/ml; Inactive
[3] = system: Daudi; assay: Tested for antiproliferative activity against human tumor DAUDI EBV-immortalized B-lymphoid cells up to 72 hrs at concentration of 5 ug/ml; Inactive
[4] = Tested for cell count against human tumor Molt-4 cell line for antiproliferative activity; Inactive
[5] = system: Daudi; assay: Tested for antiproliferative activity against human tumor DAUDI EBV-immortalized B-lymphoid cells up to 72 hrs at concentration of 1.25 ug/ml; Inactive
[6] = Tested for cell count against human tumor DAUDI EBV-immortalized B-lymphoid cells for antiproliferative activity; Inactive
[7] = system: K562; assay: Tested for cell count against human tumor K562 erythromyeloid stem cells for antiproliferative activity; Inactive
[8] = Tested for cell count against human tumor MT-2 T-lymphoid cells for antiproliferative activity; Inactive
[9] = system: MT2; assay: Tested for antiproliferative activity against human tumor MT-2 T-lymphoid cells up to 72 hrs at concentration of 1.25 ug/ml; Inactive
[10] = system: MT2; assay: Tested for antiproliferative activity against human tumor MT-2 T-lymphoid cells up to 72 hrs at concentration of 10 ug/ml; Inactive
[11] = system: MT2; assay: Tested for antiproliferative activity against human tumor MT-2 T-lymphoid cells up to 72 hrs at concentration of 2.5 ug/ml; Inactive
[12] = system: MT2; assay: Tested for antiproliferative activity against human tumor MT-2 T-lymphoid cells up to 72 hrs at concentration of 5 ug/ml; Inactive
[13] = Tested for antiproliferative activity against human tumor U937 cell line up to 72 hrs at concentration of 1.25 ug/ml; Inactive
[14] = (§1) Tested for antiproliferative activity against human tumor U937 cell line up to 72 hrs at concentration of 10 ug/ml; Inactive
[15] = Tested for antiproliferative activity against human tumor U937 cell line up to 72 hrs at concentration of 2.5 ug/ml; Inactive
[16] = (§2) Tested for antiproliferative activity against human tumor U937 cell line up to 72 hrs at concentration of 5 ug/ml; Inactive
[17] = Tested for cell count against human tumor HL60 myeloid cells for antiproliferative activity; Inactive
[18] = system: MOLT-4; assay: Tested for antiproliferative activity against human tumor Molt-4 cell line up to 72 hrs at concentration of 5 ug/ml; Inactive
[19] = system: MOLT-4; assay: Tested for antiproliferative activity against human tumor Molt-4 cell line up to 72 hrs at concentration of 1.25 ug/ml; Inactive
[20] = system: MOLT-4; assay: Tested for antiproliferative activity against human tumor Molt-4 cell line up to 72 hrs at concentration of 10 ug/ml; Inactive
[21] = system: MOLT-4; assay: Tested for antiproliferative activity against human tumor Molt-4 cell line up to 72 hrs at concentration of 2.5 ug/ml; Inactive
[22] = system: HL-60; assay: as §2
[23] = system: HL-60; assay: Tested for antiproliferative activity against human tumor HL60 myeloid cells up to 72 hrs at concentration of 10 ug/ml; Inactive
[24] = system: Daudi; assay: as §1; conditions: U-937

Measured: Activity

C[C@H]1C[C@@H](CO)O[C@H]1n1ccc(=O)[nH]c1=O
not listed: [22] | [23] | [24]
inactive: all other assays above

CCC[C@H]1C[C@@H](CO)OC1n1ccc(=O)[nH]c1=O (some centres not stated)
not listed: [22] | [23] | [24]
inactive: all other assays above

C=CCC1C(O)[C@@H](CO)O[C@H]1n1ccc(N)nc1=O (single isomer, unassigned)
not listed: [22] | [23] | [24]
inactive: all other assays above

C=CC[C@H]1C[C@@H](CO)OC1n1ccc(=O)[nH]c1=O (some centres not stated)
not listed: [23] | [24]
inactive: all other assays above

C[C@@H]1C[C@@H](CO)O[C@H]1n1ccc(=O)[nH]c1=O
not listed: [22] | [23] | [24]
inactive: all other assays above

CCCC1C(O)[C@@H](CO)O[C@H]1n1ccc(N)nc1=O (single isomer, unassigned)
not listed: [22] | [23] | [24]
inactive: all other assays above

C=CCC1C(O)[C@@H](CO)O[C@H]1n1ccc(=O)[nH]c1=O (single isomer, unassigned)
not listed: [22] | [23] | [24]
inactive: all other assays above

CCCC1C(O)[C@@H](CO)O[C@H]1n1ccc(=O)[nH]c1=O (single isomer, unassigned)
not listed: [22] | [23] | [24]
inactive: all other assays above

CC1[C@@H](O)[C@@H](CO)O[C@H]1n1ccc(=O)[nH]c1=O (single isomer, unassigned; 5b)
not listed: [22] | [23] | [24]
inactive: all other assays above

CC1[C@@H](O)[C@@H](CO)O[C@H]1n1ccc(=O)[nH]c1=O (single isomer, unassigned; 5a)
not listed: [14] | [22]
inactive: all other assays above
